The source made the active and inactive calls. The rule behind the calls is not given here.
Key:
Malme-3M = assay: Growth inhibition of human MALME-3M cells at 10 uM after 48 hrs by sulforhodamine B assay; assay type: functional; conditions: read-out: GI
LOX IMVI = assay: Growth inhibition of human LOXIMVI cells at 10 uM after 48 hrs by sulforhodamine B assay; assay type: functional
U-251 = assay: Growth inhibition of human U251 cells at 10 uM after 48 hrs by sulforhodamine B assay; assay type: functional
SNB-75 = assay: Growth inhibition of human SNB75 cells at 10 uM after 48 hrs by sulforhodamine B assay; assay type: functional
SNB-19 = assay: Growth inhibition of human SNB19 cells at 10 uM after 48 hrs by sulforhodamine B assay; assay type: functional
SF-539 = assay: Growth inhibition of human SF539 cells at 10 uM after 48 hrs by sulforhodamine B assay; assay type: functional
SF-295 = assay: Growth inhibition of human SF295 cells at 10 uM after 48 hrs by sulforhodamine B assay; assay type: functional
SF-268 = assay: Growth inhibition of human SF268 cells at 10 uM after 48 hrs by sulforhodamine B assay; assay type: functional
KM12 = assay: Growth inhibition of human KM12 cells at 10 uM after 48 hrs by sulforhodamine B assay; assay type: functional
SW-620 = assay: Growth inhibition of human SW620 cells at 10 uM after 48 hrs by sulforhodamine B assay; assay type: functional
HT-29 = assay: Growth inhibition of human HT-29 cells at 10 uM after 48 hrs by sulforhodamine B assay; assay type: functional
HCT-15 = assay: Growth inhibition of human HCT15 cells at 10 uM after 48 hrs by sulforhodamine B assay; assay type: functional; conditions: HCT-15, 48 h, read-out: GI
HCT-116 = assay: Growth inhibition of human HCT116 cells at 10 uM after 48 hrs by sulforhodamine B assay; assay type: functional; conditions: HCT-116, 48 h, read-out: GI
HCC 2998 = assay: Growth inhibition of human HCC2998 cells at 10 uM after 48 hrs by sulforhodamine B assay; assay type: functional
COLO 205 = assay: Growth inhibition of human COLO205 cells at 10 uM after 48 hrs by sulforhodamine B assay; assay type: functional
NCI-H522 = assay: Growth inhibition of human NCI-H522 cells at 10 uM after 48 hrs by sulforhodamine B assay; assay type: functional
NCI-H460 = assay: Growth inhibition of human NCI-H460 cells at 10 uM after 48 hrs by sulforhodamine B assay; assay type: functional
NCI-H322M = assay: Growth inhibition of human NCI-H322M cells at 10 uM after 48 hrs by sulforhodamine B assay; assay type: functional; conditions: read-out: GI
NCI-H23 = assay: Growth inhibition of human NCI-H23 cells at 10 uM after 48 hrs by sulforhodamine B assay; assay type: functional
NCI-H226 = assay: Growth inhibition of human NCI-H226 cells at 10 uM after 48 hrs by sulforhodamine B assay; assay type: functional
HOP-62 = assay: Growth inhibition of human HOP62 cells at 10 uM after 48 hrs by sulforhodamine B assay; assay type: functional
EKVX = assay: Growth inhibition of human EKVX cells at 10 uM after 48 hrs by sulforhodamine B assay; assay type: functional
A549 = assay: Growth inhibition of human A549/ATCC cells at 10 uM after 48 hrs by sulforhodamine B assay; assay type: functional
SR = assay: Growth inhibition of human SR cells at 10 uM after 48 hrs by sulforhodamine B assay; assay type: functional; conditions: read-out: GI
RPMI-8226 = assay: Growth inhibition of human RPMI8226 cells at 10 uM after 48 hrs by sulforhodamine B assay; assay type: functional
MOLT-4 = assay: Growth inhibition of human MOLT4 cells at 10 uM after 48 hrs by sulforhodamine B assay; assay type: functional; conditions: MOLT-4, 48 h, read-out: GI
HL-60(TB) = assay: Growth inhibition of human HL-60(TB) cells at 10 uM after 48 hrs by sulforhodamine B assay; assay type: functional
CCRF-CEM = assay: Growth inhibition of human CCRF-CEM cells at 10 uM after 48 hrs by sulforhodamine B assay; assay type: functional
Carbonic anhydrase 9 = Carbonic anhydrase 9 (Homo sapiens, UniProt Q16790); assay: Inhibition of human carbonic anhydrase 9 after 15 mins by stopped flow CO2 hydration assay
T47D = assay: Growth inhibition of human T47D cells at 10 uM after 48 hrs by sulforhodamine B assay; assay type: functional
BT-549 = assay: Growth inhibition of human BT549 cells at 10 uM after 48 hrs by sulforhodamine B assay; assay type: functional
Hs-578T = assay: Growth inhibition of human Hs 578T cells at 10 uM after 48 hrs by sulforhodamine B assay; assay type: functional
MDA-MB-231 = assay: Growth inhibition of human MDA-MB-231 cells at 10 uM after 48 hrs by sulforhodamine B assay; assay type: functional
MCF7 = assay: Growth inhibition of human MCF7 cells at 10 uM after 48 hrs by sulforhodamine B assay; assay type: functional; conditions: MCF7, 48 h, read-out: GI
DU-145 = assay: Growth inhibition of human DU145 cells at 10 uM after 48 hrs by sulforhodamine B assay; assay type: functional
PC-3 = assay: Growth inhibition of human PC3 cells at 10 uM after 48 hrs by sulforhodamine B assay; assay type: functional
UO-31 = assay: Growth inhibition of human UO31 cells at 10 uM after 48 hrs by sulforhodamine B assay; assay type: functional; conditions: UO-31, 48 h, read-out: GI
TK-10 = assay: Growth inhibition of human TK10 cells at 10 uM after 48 hrs by sulforhodamine B assay; assay type: functional
SN12C = assay: Growth inhibition of human SN12C cells at 10 uM after 48 hrs by sulforhodamine B assay; assay type: functional
RXF 393 = assay: Growth inhibition of human RXF393 cells at 10 uM after 48 hrs by sulforhodamine B assay; assay type: functional
CAKI-1 = assay: Growth inhibition of human CAKI-1 cells at 10 uM after 48 hrs by sulforhodamine B assay; assay type: functional; conditions: CAKI-1, 48 h, read-out: GI
ACHN = assay: Growth inhibition of human ACHN cells at 10 uM after 48 hrs by sulforhodamine B assay; assay type: functional
A498 = assay: Growth inhibition of human A498 cells at 10 uM after 48 hrs by sulforhodamine B assay; assay type: functional
786-0 = assay: Growth inhibition of human 786-0 cells at 10 uM after 48 hrs by sulforhodamine B assay; assay type: functional
SK-OV-3 = assay: Growth inhibition of human SKOV3 cells at 10 uM after 48 hrs by sulforhodamine B assay; assay type: functional
NCI/ADR-RES = assay: Growth inhibition of human NCI-ADR-RES cells at 10 uM after 48 hrs by sulforhodamine B assay; assay type: functional
OVCAR-8 = assay: Growth inhibition of human OVCAR8 cells at 10 uM after 48 hrs by sulforhodamine B assay; assay type: functional; conditions: OVCAR-8, 48 h, read-out: GI
OVCAR-5 = assay: Growth inhibition of human OVCAR5 cells at 10 uM after 48 hrs by sulforhodamine B assay; assay type: functional
OVCAR-4 = assay: Growth inhibition of human OVCAR4 cells at 10 uM after 48 hrs by sulforhodamine B assay; assay type: functional
OVCAR-3 = assay: Growth inhibition of human OVCAR3 cells at 10 uM after 48 hrs by sulforhodamine B assay; assay type: functional
IGROV-1 = assay: Growth inhibition of human IGROV1 cells at 10 uM after 48 hrs by sulforhodamine B assay; assay type: functional
UACC-62 = assay: Growth inhibition of human UACC62 cells at 10 uM after 48 hrs by sulforhodamine B assay; assay type: functional
UACC-257 = assay: Growth inhibition of human UACC257 cells at 10 uM after 48 hrs by sulforhodamine B assay; assay type: functional
SK-MEL-5 = assay: Growth inhibition of human SK-MEL-5 cells at 10 uM after 48 hrs by sulforhodamine B assay; assay type: functional
SK-MEL-28 = assay: Growth inhibition of human SK-MEL-28 cells at 10 uM after 48 hrs by sulforhodamine B assay; assay type: functional, cell-based
SK-MEL-2 = assay: Growth inhibition of human SK-MEL-2 cells at 10 uM after 48 hrs by sulforhodamine B assay; assay type: functional
MDA-MB-435 = assay: Growth inhibition of human MDA-MB-435 cells at 10 uM after 48 hrs by sulforhodamine B assay; assay type: functional
M14 = assay: Growth inhibition of human M14 cells at 10 uM after 48 hrs by sulforhodamine B assay; assay type: functional; conditions: M14, 48 h, read-out: GI

Question: With NS(=O)(=O)c1cnccc1N1CCN(c2ccccc2F)CC1 as the molecule, how does the inhibition of growth at 10 µM (Malme-3M) read?
Answer: 4%

Question: And the “growth inhibition (GI)” value (LOX IMVI)?
Answer: inactive

Question: And the “growth inhibition (GI)” value (U-251)?
Answer: inactive

Question: What about the “growth inhibition (GI)” value (SNB-75) of the same molecule?
Answer: inactive

Question: And the “growth inhibition (GI)” value (SNB-19)?
Answer: inactive

Question: What about the “growth inhibition (GI)” value (SF-539) of the same molecule?
Answer: inactive

Question: And the “growth inhibition (GI)” value (SF-295)?
Answer: inactive

Question: And the “growth inhibition (GI)” value (SF-268)?
Answer: inactive

Question: And the “growth inhibition (GI)” value (KM12)?
Answer: inactive

Question: What about the “growth inhibition (GI)” value (SW-620) of the same molecule?
Answer: inactive

Question: And the “growth inhibition (GI)” value (HT-29)?
Answer: inactive

Question: And the inhibition of growth at 10 µM (HCT-15)?
Answer: 1%

Question: What about the inhibition of growth at 10 µM (HCT-116) of the same molecule?
Answer: 3%

Question: What about the “growth inhibition (GI)” value (HCC 2998) of the same molecule?
Answer: inactive

Question: What about the “growth inhibition (GI)” value (COLO 205) of the same molecule?
Answer: inactive

Question: And the “growth inhibition (GI)” value (NCI-H522)?
Answer: inactive

Question: What about the “growth inhibition (GI)” value (NCI-H460) of the same molecule?
Answer: inactive

Question: And the inhibition of growth at 10 µM (NCI-H322M)?
Answer: 7%

Question: And the “growth inhibition (GI)” value (NCI-H23)?
Answer: inactive

Question: And the “growth inhibition (GI)” value (NCI-H226)?
Answer: inactive

Question: What about the “growth inhibition (GI)” value (HOP-62) of the same molecule?
Answer: inactive

Question: What about the “growth inhibition (GI)” value (EKVX) of the same molecule?
Answer: inactive

Question: What about the “growth inhibition (GI)” value (A549) of the same molecule?
Answer: inactive

Question: And the inhibition of growth at 10 µM (SR)?
Answer: 6%

Question: And the “growth inhibition (GI)” value (RPMI-8226)?
Answer: inactive

Question: What about the inhibition of growth at 10 µM (MOLT-4) of the same molecule?
Answer: 2%

Question: And the “growth inhibition (GI)” value (HL-60(TB))?
Answer: inactive

Question: What about the “growth inhibition (GI)” value (CCRF-CEM) of the same molecule?
Answer: inactive

Question: And the Ki (Carbonic anhydrase 9)?
Answer: 148 nM

Question: And the “growth inhibition (GI)” value (T47D)?
Answer: inactive

Question: And the “growth inhibition (GI)” value (BT-549)?
Answer: inactive

Question: What about the “growth inhibition (GI)” value (Hs-578T) of the same molecule?
Answer: inactive

Question: And the “growth inhibition (GI)” value (MDA-MB-231)?
Answer: inactive

Question: What about the inhibition of growth at 10 µM (MCF7) of the same molecule?
Answer: 6%

Question: What about the “growth inhibition (GI)” value (DU-145) of the same molecule?
Answer: inactive

Question: What about the “growth inhibition (GI)” value (PC-3) of the same molecule?
Answer: inactive

Question: What about the inhibition of growth at 10 µM (UO-31) of the same molecule?
Answer: 13%

Question: What about the “growth inhibition (GI)” value (TK-10) of the same molecule?
Answer: inactive

Question: And the “growth inhibition (GI)” value (SN12C)?
Answer: inactive

Question: What about the “growth inhibition (GI)” value (RXF 393) of the same molecule?
Answer: inactive

Question: And the inhibition of growth at 10 µM (CAKI-1)?
Answer: 3%

Question: And the “growth inhibition (GI)” value (ACHN)?
Answer: inactive

Question: And the “growth inhibition (GI)” value (A498)?
Answer: inactive

Question: And the “growth inhibition (GI)” value (786-0)?
Answer: inactive

Question: And the “growth inhibition (GI)” value (SK-OV-3)?
Answer: inactive

Question: What about the “growth inhibition (GI)” value (NCI/ADR-RES) of the same molecule?
Answer: inactive

Question: What about the inhibition of growth at 10 µM (OVCAR-8) of the same molecule?
Answer: 2%

Question: And the “growth inhibition (GI)” value (OVCAR-5)?
Answer: inactive

Question: And the “growth inhibition (GI)” value (OVCAR-4)?
Answer: inactive

Question: And the “growth inhibition (GI)” value (OVCAR-3)?
Answer: inactive

Question: And the “growth inhibition (GI)” value (IGROV-1)?
Answer: inactive

Question: What about the “growth inhibition (GI)” value (UACC-62) of the same molecule?
Answer: inactive

Question: And the “growth inhibition (GI)” value (UACC-257)?
Answer: inactive

Question: What about the “growth inhibition (GI)” value (SK-MEL-5) of the same molecule?
Answer: inactive

Question: What about the “growth inhibition (GI)” value (SK-MEL-28) of the same molecule?
Answer: inactive

Question: And the “growth inhibition (GI)” value (SK-MEL-2)?
Answer: inactive

Question: What about the “growth inhibition (GI)” value (MDA-MB-435) of the same molecule?
Answer: inactive

Question: And the inhibition of growth at 10 µM (M14)?
Answer: 5%
